According to patent US9650365B2 (UNIVERSITY OF CONNECTICUT, priority 2014, dated 2017):
Where “and” joins values, the source holds several entries; their conditions need not be identical. Equal values may be shown once. Read-outs that look alike come from different tables or passages of the source.

What was measured:
[1] = tested on: Hh signaling (Gli1 mRNA) in C3H10T1/2 cells; experiment: Down-regulation of endogenous Gli1 mRNA in Hh-dependent C3H10T1/2 cells; assay type: cell-based, mouse; settings: Mus musculus
How it was run: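 Hh pathway activated in C3H10T1/2 cells with exogenous agonist (recombinant Hh ligand or small molecule) alongside inhibitor; Gli1 mRNA measured by qPCR. Concentration-dependent Gli1 reduction also assessed in murine BCC ASZ cells; values mean±SEM, ≥2 experiments in triplicate.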

[2] = tested on: HUVEC; experiment: HUVEC proliferation (MTS); assay type: cell-based, human; settings: Homo sapiens, HUVEC
How it was run: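 HUVECs seeded at 3,000 cells/well, attached overnight, then treated with varying drug concentrations. Proliferation read by MTS/PMS after 72 h.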

[3] = tested on: tube formation in HUVECs; experiment: HUVEC tube formation on Matrigel; assay type: cell-based, human
[4] = tested on: Ptch1 in C3Hs; experiment: Down-regulation of Ptch1 in C3H10T1/2 cells; assay type: cell-based, mouse
From the text: For this assay, the wild-type and D477G Smo constructs will be transiently transfected into C3H10T1/2 cells and inhibition of pathway signaling assessed as previously described.

[5] = tested on: Gli1 in DAOYs (cultured MB); experiment: Down-regulation of Gli1 in DAOY cells; assay type: cell-based; settings: Homo sapiens
From the text: (§1) Additional analogues have been synthesized and characterized in the assays described above.

[6] = tested on: Gli1 in M2s; experiment: Down-regulation of Gli1 in M2s; assay type: cell-based
From the text: as §1

[7] = tested on: Hh signaling (Gli1 mRNA) in MERP MB cells; experiment: Down-regulation of Gli1 mRNA in MERP MB cells; assay type: cell-based, mice; settings: Mus musculus; 48 hr incubation
Protocol: General Information. Protocols for general cell culture, qPCR and Hh inhibition in C3H10T1/2 and ASZ cells are as previously described.^28 Protocols for the initiation and growth of Math1-Cre-ER; Ptc^fl/fl medulloblastoma tumors, isolation and in vitro culture of MERP MB cells, as wells as the anti-proliferation and qPCR studies performed in these cells were as previously described.^a Sonic Hedgehog (C25II) recombinant mouse protein was purchased from Life Technologies. aData was analyzed using GraphPad Prism 5 and reported values represent mean±SEM for at least two separate experiments performed in triplicate.

[8] = tested on: angiogenesis; settings: background; cited from earlier work
[9] = tested on: Hh-dependent MB; settings: oral administration; cited from earlier work
[10] = C3H 10T1/2, read-out: Hh inhibition

CCC(C)n1ncn(-c2ccc(N3CCN(c4ccc(OCC5COC(Cn6cncn6)(c6ccc(Cl)cc6Cl)O5)cc4)CC3)cc2)c1=O (centres unmarked) [ITZ, itraconazole, reference compound]
IC50 ([1]; C3H 10T1/2, 24 h, read-out: IC50 (μM) C3H10T1/2, 24 hr incubation): 0.074 µM | inhibition at 1 µM ([1]; C3H 10T1/2, read-out: % Hh inhibition): 96% | inhibition at 0.5 µM [1, 10]: ~70% | inhibition at 1 µM [1, 10]: ~98% | IC50 ([1]; C3H 10T1/2, read-out: Hh pathway inhibition C3H10T1/2, down-regulation of endogenous Gli1 mRNA): 0.074 ± 0.02 µM | IC50 ([1]; C3H 10T1/2, read-out: IC50 (μM) Gli1-C3Hs): 0.07 ± 0.02 µM | IC50 ([1]; C3H 10T1/2, read-out: IC50 down-regulation of Gli1, C3H10T1/2 cells): 0.074 µM | GI50 ([2]; 72 h, read-out: GI50 (μM) HUVEC, 72 h): 0.4 ± 0.03 µM | GI50 ([2]; read-out: GI50 HUVEC proliferation): 0.45 µM | IC50 ([2]; read-out: HUVEC Anti-proliferation): 450 ± 140 nM | inhibition of tube formation ([3]; 1 μM, 16 h): significant inhibition | inhibition of tube formation (overall tube length and total tube junctions) ([3]; 10 μM, 16 h): comparable to that of the positive control suramin | inhibition of tube formation ([3]; 0.1 and 1 μM, 24 hour): significantly inhibited tube formation | IC50 [4]: 0.33 µM | IC50 ([4]; Mus musculus, C3H 10T1/2): 0.2 µM | IC50 [5]: 0.6 ± 0.08 µM | IC50 [6]: 0.3 µM and 0.52 µM | IC50 [7]: 0.39 ± 0.06 µM | IC50 [8]: 160 nM | survival [9]: increased survival
